≈ marks a conversion by molar mass, not a printed value. Calls of active or inactive are those of the source. No cut-off for these calls is given here.
Experiments:
[1] = test system: Escherichia coli; assay: Antibacterial activity against Escherichia coli ATCC 25922 after 24 hrs by microdilution method; assay type: functional, organism-based
[2] = test system: Enterococcus faecalis; assay: Antibacterial activity against vancomycin-resistant Enterococcus faecalis after 24 hrs by microdilution method; assay type: functional
[3] = test system: Staphylococcus aureus; assay: Bactericidal activity against methicillin-resistant Staphylococcus aureus after 24 hrs; assay type: functional
[4] = test system: Staphylococcus aureus; assay: Antibacterial activity against Staphylococcus aureus ATCC 29213 after 24 hrs by microdilution method; assay type: functional; details: ATCC 29213, 24 h
[5] = test system: Enterococcus faecalis; assay: Bactericidal activity against vancomycin-resistant Enterococcus faecalis after 24 hrs; assay type: functional
[6] = test system: Pseudomonas aeruginosa; assay: Antibacterial activity against Pseudomonas aeruginosa ATCC 27853 after 24 hrs by microdilution method; assay type: functional, organism-based
[7] = test system: Staphylococcus aureus; assay: Antibacterial activity against methicillin-resistant Staphylococcus aureus after 24 hrs by microdilution method; assay type: functional
[8] = test system: Staphylococcus aureus; assay: Bactericidal activity against Staphylococcus aureus ATCC 29213 after 24 hrs; assay type: functional; details: ATCC 29213, 24 h
[9] = test system: HeLa; assay: Cytotoxicity against human HeLa cells after 48 hrs by MTT assay; assay type: functional, cell-based
[10] = test system: A549; assay: Cytotoxicity against human A549 cells after 48 hrs by MTT assay; assay type: functional, cell-based
[11] = test system: PC-3; assay: Cytotoxicity against human PC3 cells after 48 hrs by MTT assay; assay type: functional, cell-based

In the case of `Clc1ccc(C(c2c[nH]c3ccc(Br)cc23)c2c[nH]c3ccc(Br)cc23)cc1`, the Activity [1] is reported as “inactive”, the MIC [2] is reported as 8 µg/mL (≈ 15.5 µM) and the MBC [3] is reported as 8 µg/mL (≈ 15.5 µM). The MIC [4] was 4 µg/mL (≈ 7.77 µM), the MBC [5] was 8 µg/mL (≈ 15.5 µM) and the Activity [6] was “inactive”. It also gave an MIC [7] of 8 µg/mL (≈ 15.5 µM) and an MBC [8] of 4 µg/mL (≈ 7.77 µM).

In the case of `Brc1ccc2[nH]cc(C(c3ccccc3)c3c[nH]c4ccc(Br)cc34)c2c1`, the Activity [1] is reported as “inactive”, the MIC [2] is reported as 256 µg/mL (≈ 533 µM) and the MIC [4] is reported as 256 µg/mL (≈ 533 µM). The Activity [6] was “inactive” and the MIC [7] was 256 µg/mL (≈ 533 µM).

`Fc1ccc(C(c2cn(Cc3ccc(Br)cc3)c3ccc(Br)cc23)c2cn(Cc3ccc(Br)cc3)c3ccc(Br)cc23)cc1` was tested, and the IC50 [9] was 49 µM, the MIC [2] was > 128 µg/mL and the MIC [4] was > 128 µg/mL. The IC50 [10] was 24.7 µM, the IC50 [11] was 43.7 µM and the MIC [7] was > 128 µg/mL.

With `CCCCCCCCC(c1c[nH]c2ccc(Br)cc12)c1c[nH]c2ccc(Br)cc12` the Activity [1] was “inactive”, the MIC [2] was > 256 µg/mL and the MIC [4] was > 256 µg/mL. The Activity [6] was “inactive” and the MIC [7] was > 256 µg/mL.

In the case of `COc1ccc2c(c1)OC(C)(C)CC2(c1c[nH]c2ccc(Br)cc12)c1c[nH]c2ccc(Br)cc12`, the Activity [1] is reported as “inactive”, the MIC [2] is reported as 8 µg/mL (≈ 13.8 µM) and the MBC [3] is reported as 8 µg/mL (≈ 13.8 µM). For the same compound, the MIC [4] was 4 µg/mL (≈ 6.89 µM), the MBC [5] was 8 µg/mL (≈ 13.8 µM) and the Activity [6] was “inactive”. It also gave an MIC [7] of 4 µg/mL (≈ 6.89 µM) and an MBC [8] of 4 µg/mL (≈ 6.89 µM).

With `O=S(=O)(c1ccc(F)cc1)n1cc(C(c2ccc(F)cc2)c2cn(S(=O)(=O)c3ccc(F)cc3)c3ccc(Br)cc23)c2cc(Br)ccc21` the IC50 [9] was > 100 µM, the MIC [2] was > 128 µg/mL and the MIC [4] was > 128 µg/mL. For the same compound, the IC50 [10] was > 100 µM, the IC50 [11] was > 100 µM and the MIC [7] was > 128 µg/mL.

In the case of `COc1ccc(C(c2c[nH]c3ccc(Br)cc23)c2c[nH]c3ccc(Br)cc23)c(OC)c1`, the Activity [1] is reported as “inactive”, the MIC [2] is reported as > 256 µg/mL and the MIC [4] is reported as 256 µg/mL (≈ 474 µM). For the same compound, the Activity [6] was “inactive” and the MIC [7] was 256 µg/mL (≈ 474 µM).

`COc1ccc(Cn2cc(C(c3ccc(F)cc3)c3cn(Cc4ccc(OC)cc4)c4ccc(Br)cc34)c3cc(Br)ccc32)cc1` was tested, and the IC50 [9] was 48.5 µM, the MIC [2] was > 128 µg/mL and the MIC [4] was > 128 µg/mL. The IC50 [10] was 36.4 µM, the IC50 [11] was 43.5 µM and the MIC [7] was > 128 µg/mL.

With `Brc1ccc2[nH]cc(C(c3c[nH]c4ccc(Br)cc34)C3CCCCC3)c2c1` the Activity [1] was “inactive”, the MIC [2] was 32 µg/mL (≈ 65.8 µM) and the MBC [3] was 32 µg/mL (≈ 65.8 µM). For the same compound, the MIC [4] was 16 µg/mL (≈ 32.9 µM), the MBC [5] was 32 µg/mL (≈ 65.8 µM) and the Activity [6] was “inactive”. For the same compound, the MIC [7] was 32 µg/mL (≈ 65.8 µM) and the MBC [8] was 32 µg/mL (≈ 65.8 µM).

With `Fc1ccc(C(c2cn(Cc3ccccc3)c3ccc(Br)cc23)c2cn(Cc3ccccc3)c3ccc(Br)cc23)cc1` the IC50 [9] was 28.3 µM, the MIC [2] was > 128 µg/mL and the MIC [4] was > 128 µg/mL. For the same compound, the IC50 [10] was 28.2 µM, the IC50 [11] was 43.1 µM and the MIC [7] was > 128 µg/mL.

With `COc1cccc(C(c2c[nH]c3ccc(Br)cc23)c2c[nH]c3ccc(Br)cc23)c1OC` the Activity [1] was “inactive”, the MIC [2] was > 256 µg/mL and the MIC [4] was 256 µg/mL (≈ 474 µM). The Activity [6] was “inactive” and the MIC [7] was 256 µg/mL (≈ 474 µM).

In the case of `COc1ccc(C(c2c[nH]c3ccc(Br)cc23)c2c[nH]c3ccc(Br)cc23)cc1OC`, the Activity [1] is reported as “inactive”, the MIC [2] is reported as 256 µg/mL (≈ 474 µM) and the MIC [4] is reported as 128 µg/mL (≈ 237 µM). The Activity [6] was “inactive” and the MIC [7] was 256 µg/mL (≈ 474 µM).

`Brc1ccc2[nH]cc(C(c3ccc4ccccc4c3)c3c[nH]c4ccc(Br)cc34)c2c1` was tested, and the Activity [1] was “inactive”, the MIC [2] was 32 µg/mL (≈ 60.3 µM) and the MBC [3] was 32 µg/mL (≈ 60.3 µM). For the same compound, the MIC [4] was 16 µg/mL (≈ 30.2 µM), the MBC [5] was 32 µg/mL (≈ 60.3 µM) and the Activity [6] was “inactive”. The MIC [7] was 32 µg/mL (≈ 60.3 µM) and the MBC [8] was 16 µg/mL (≈ 30.2 µM).

With `Fc1ccc(C(c2cn(Cc3ccc(Cl)cc3)c3ccc(Br)cc23)c2cn(Cc3ccc(Cl)cc3)c3ccc(Br)cc23)cc1` the IC50 [9] was 18.5 µM, the MIC [2] was > 128 µg/mL and the MIC [4] was > 128 µg/mL. The IC50 [10] was 22.8 µM, the IC50 [11] was 38.5 µM and the MIC [7] was > 128 µg/mL.

In the case of `CCCCCCCCn1cc(C(c2ccc(F)cc2)c2cn(CCCCCCCC)c3ccc(Br)cc23)c2cc(Br)ccc21`, the IC50 [9] is reported as 32.4 µM, the MIC [2] is reported as > 128 µg/mL and the MIC [4] is reported as > 128 µg/mL. For the same compound, the IC50 [10] was 38.7 µM, the IC50 [11] was 44.9 µM and the MIC [7] was > 128 µg/mL.

`c1ccc(C(c2c[nH]c3ccccc23)c2c[nH]c3ccccc23)cc1` was tested, and the Activity [1] was “inactive”, the MIC [2] was > 256 µg/mL and the MIC [4] was > 256 µg/mL. For the same compound, the Activity [6] was “inactive” and the MIC [7] was > 256 µg/mL.

In the case of `Brc1ccc(C(c2c[nH]c3ccc(Br)cc23)c2c[nH]c3ccc(Br)cc23)cc1`, the Activity [1] is reported as “inactive”, the MIC [2] is reported as 64 µg/mL (≈ 114 µM) and the MBC [3] is reported as 64 µg/mL (≈ 114 µM). For the same compound, the MIC [4] was 8 µg/mL (≈ 14.3 µM), the MBC [5] was 64 µg/mL (≈ 114 µM) and the Activity [6] was “inactive”. For the same compound, the MIC [7] was 32 µg/mL (≈ 57.2 µM) and the MBC [8] was 16 µg/mL (≈ 28.6 µM).

`O=[N+]([O-])c1ccc2[nH]cc(C(c3ccc(O)cc3)c3c[nH]c4ccc([N+](=O)[O-])cc34)c2c1` was tested, and the Activity [1] was “inactive”, the MIC [2] was 2 µg/mL (≈ 4.67 µM) and the MBC [3] was 1 µg/mL (≈ 2.33 µM). For the same compound, the MIC [4] was 1 µg/mL (≈ 2.33 µM), the MBC [5] was 2 µg/mL (≈ 4.67 µM) and the Activity [6] was “inactive”. For the same compound, the MIC [7] was 1 µg/mL (≈ 2.33 µM) and the MBC [8] was 1 µg/mL (≈ 2.33 µM).

Reference: ChEMBL document CHEMBL2429833, “A new class of bactericidal agents against S. aureus, MRSA and VRE derived from bisindolylmethane” (Med Chem Res, 2013)
